Test results as given in patent US20110039825A1, “LIGANDS OF ALPHA-ADRENOCEPTORS, DOPAMINE, HISTAMINE, IMIDAZOLINE AND SEROTONIN RECEPTORS AND THEIR USE” (Alla Chem, LLC, priority 2007, published 2011).

Experiments:
recombinant human 5-HT1A = target: T1, recombinant human 5-HT1A (Homo sapiens, UniProt P08908); assay: radioligand binding to serotonin receptor 5-HT1A ([3H] 8-OH-DPAT); settings: 10 μM ligand
T1 construct: expressed in transfected cells; host or cells: CHO
T1 sequence (P08908 1-422): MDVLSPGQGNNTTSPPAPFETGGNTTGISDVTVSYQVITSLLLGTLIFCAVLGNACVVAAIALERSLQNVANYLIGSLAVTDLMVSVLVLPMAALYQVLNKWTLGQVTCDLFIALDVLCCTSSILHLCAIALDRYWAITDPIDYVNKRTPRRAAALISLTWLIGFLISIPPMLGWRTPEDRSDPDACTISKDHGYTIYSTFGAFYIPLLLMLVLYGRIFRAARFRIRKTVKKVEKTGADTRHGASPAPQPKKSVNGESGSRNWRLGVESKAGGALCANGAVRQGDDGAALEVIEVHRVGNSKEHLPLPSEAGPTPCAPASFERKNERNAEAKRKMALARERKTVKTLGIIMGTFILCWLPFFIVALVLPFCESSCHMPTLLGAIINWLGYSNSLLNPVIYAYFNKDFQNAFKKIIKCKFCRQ
Description: J Pharmacol Exp Ther. 306(1): 301-309, 2003]. […] Metergoline is used as positive control.

[1] = target: T2, recombinant human 5-HT2B receptor (Homo sapiens, UniProt P41595); assay: radioligand binding to serotonin receptor 5-HT2B ([3H] Lysergic acid diethylamide); settings: 10 μM ligand
T2 construct: expressed in transfected cells; host or cells: CHO-K1
T2 sequence (P41595 whole entry): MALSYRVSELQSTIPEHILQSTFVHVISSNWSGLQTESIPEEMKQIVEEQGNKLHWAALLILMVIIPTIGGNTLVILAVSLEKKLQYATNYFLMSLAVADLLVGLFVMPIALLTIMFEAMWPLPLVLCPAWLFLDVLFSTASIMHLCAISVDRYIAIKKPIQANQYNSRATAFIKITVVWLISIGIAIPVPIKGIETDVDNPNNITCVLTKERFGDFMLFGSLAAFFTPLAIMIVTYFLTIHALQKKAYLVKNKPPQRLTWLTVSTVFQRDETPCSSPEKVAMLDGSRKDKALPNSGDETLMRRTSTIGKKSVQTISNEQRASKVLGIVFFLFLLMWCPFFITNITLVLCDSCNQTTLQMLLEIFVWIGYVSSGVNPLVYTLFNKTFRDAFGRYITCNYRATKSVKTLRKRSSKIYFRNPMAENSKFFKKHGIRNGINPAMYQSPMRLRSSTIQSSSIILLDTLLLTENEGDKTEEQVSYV

[2] = target: T3, serotonin receptor 5-HT1B (Rattus norvegicus, UniProt P28564); assay: radioligand binding to serotonin receptor 5-HT1B ([125I] cyanopindolol); settings: 10 μM ligand
T3 construct: membrane species are prepared from rat brains (Wistar) by homogenization of species of rat brain-cortices; from tissue; host or cells: rat (Wistar) brain cortex membranes
T3 sequence (P28564 whole entry): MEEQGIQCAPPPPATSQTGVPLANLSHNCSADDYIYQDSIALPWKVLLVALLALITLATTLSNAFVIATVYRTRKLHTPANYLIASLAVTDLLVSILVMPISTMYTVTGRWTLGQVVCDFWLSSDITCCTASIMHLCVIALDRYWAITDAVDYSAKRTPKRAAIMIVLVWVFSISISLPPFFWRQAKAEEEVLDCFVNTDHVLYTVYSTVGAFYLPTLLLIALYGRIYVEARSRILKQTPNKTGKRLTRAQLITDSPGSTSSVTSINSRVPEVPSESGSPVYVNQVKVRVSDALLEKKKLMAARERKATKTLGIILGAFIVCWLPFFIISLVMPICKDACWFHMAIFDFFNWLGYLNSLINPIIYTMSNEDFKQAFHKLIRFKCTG
Method: Screening of the disclosed compounds for potential ability to interact with serotonin receptor 5-HT1B is carried out by method of radioligand binding. For this purpose membrane species are prepared from rat brains (Wistar) by homogenization of species of rat brain-cortices in glass homogenizer with the subsequent separation of plasmatic membranes from cell nuclei, mitochondrias and cell wreckages by differential centrifugation. […] After incubation the samples are filtered in vacuo on glass-microfiber filters G/F (Millipor, USA), filters are washed three times with cold solution of medium and radioactivity is measured by scintillation counter MicroBeta 340 (Perkin Elmer, USA). […] Serotonin is used as positive control.
Tested compounds' binding to the receptor is determined by their ability to displace radioligand and expressed in percent of displacement (% I). Values of % I are calculated according to the following equation:
wherein: TA—is overall radioactivity in the presence of radioligand only, CA—is radioactivity in the presence of radioligand and tested compound and NA—is radioactivity in the presence of radioligand and Serotonin (10 μM).

male mice of BALB/c line [3] = assay: Passive Avoidance of mice in the Shuttle Chamber, memory disturbed by MK-801; type: in vivo; settings: MK-801 0.1 mg/kg
Method: The testing was carried out as in example 14. […] Concurrently, physiological solution of MK-801 in combination with active ingredient 1.9 (1) 1/2NDSA was injected intraintestinally to independent group of mice before training

male mice of BALB/c line [4] = assay: Passive Avoidance of mice in the Shuttle Chamber, memory disturbed by Scopolamine; type: in vivo; settings: Scopolamine 0.3 mg/kg
Method: A shuttle chamber (Ugo Basile, Italy) consisted of two sections was used. […] The sections were connected through a hole which could be overlapped by a vertical door. The floor was made of transverse metal bars on which DC current impulses could be fed. Experiments were carried out in aged male mice of BALB/c line weighing 20-24 grams.
Each group consisted of at least 8 animals. Animal was placed in light section, and latent period of the first entry into dark chamber was registered. Then the vertical door was closed and the animal was punished by 0.6 mA DC current for 3 seconds. After that it was taken back to its homecage. In 22-24 hours the same animal was placed again in light section of the shuttle chamber and latent period of its first entry into dark section, the total time of its stay in light section, and the number of entries into dark section, were registered. Each monitoring lasted for 5 minutes.
Testing was carried out during the day time in isolated laboratory using white noise at level of about 70 decibel above human hearing threshold.
Scopolamine causes the disturbance of training (memory loss) that results in […].

male mice of BALB/c line [5] = assay: Mice Behavior in the Elevated Plus Maze; type: in vivo
Description: The length of each arm of the maze was 30 cm, width is 5 cm, and height of the walls was 15 cm. Two opposite arms were closed from both sides and end faces by transparent walls, the other two arms were lit and opened. A mouse was placed in the center of the maze and for the next five minutes the number of entries into opened and closed arms and the time spent in each type of arms was registered. […] The animals usually avoided opened arms (the preference index is between 0.2 and 0.3). Compounds with tranquilizing action increased this index up to 0.5-0.6 or even more and reduced the number of defecations without changing the overall motion activity of the mice (the total number of their entries to the arms).

mice = assay: Mice Training in Morris Water Maze (Scopolamine); type: in vivo; settings: unitary introduction of active ingredient
Method: Mice Training in Morris Water Maze. A round pool which was filled with water at 20-22° C. was used. A round ceramic platform of 14 cm height was placed in the pool. Animals's behavior was registered with automated computer videosystem in combination with software package of movement analysis Any-maze (Stoelting Co., US). Before testing mice suitable for training were selected. That was done by placing the platform 1 cm above the water level and putting an animal on the platform for 20 seconds. Then the mouse was sunk into the water on the opposite side of the pool, allowed to find the platform and climbed it within 60 seconds, where it was left for additional 20 seconds. After that the mouse was repeatedly immersed into water on the opposite side of the pool and allowed to look for platform. If it failed in finding the platform within 60 seconds the experimentator helped it to find the platform and climb it. If the mice could not find the platform itself in two consecutive attempts it was excluded from experiment.
During the next two days the platform was placed 0.5 centimeter lower the water level. Every day the mice were given four attempts for finding the platform within 60 seconds. The time interval between the attempts was 20 seconds, during which the mice stayed on the platform. Every day before the first attempt mouse was placed on the platform for 20 seconds. The time needed for finding and climbing the platform was registered. The animals were sunk in water in 3 different places on the side of the pool opposite to platform. On each day of two-day testing 35-40 minutes before the beginning of training the mice were injected intraintestinally with physiological solution, Scopolamine or Scopolamine in combination with investigated compound. At least 8 animals were used in each group.
On the third day the platform was removed and each animal was placed one time in the pool for a period of 60 seconds. The time each mouse spent in the area where the platform had been located during the previous days was registered. This time interval was regarded as a measure of effectiveness of training fulfilled during the previous two days. The testing was carried out during the day time in isolated laboratory using “white noise” at level of about 70 decibel above the human hearing threshold.

Structure (SMILES)	5-HT1A % inhibition (recombinant human 5-HT1A) [%]	5-HT2B % inhibition [1] [%]	5-HT1B % inhibition [2] [%]	enhancement of memory disturbed by MK-801 (passive avoidance) (male mice of BALB/c line [3])	enhancement of memory disturbed by Scopolamine (passive avoidance) (male mice of BALB/c line [4])	anxiolytic (tranquilizing) action in elevated plus maze (male mice of BALB/c line [5]; mice BALB/c)	memory disorders caused by Scopolamine in Morris water maze (mice)	anxiolytic (tranquilizing) action in elevated plus maze (male mice of BALB/c line [5]; doses of 0.05 and 0.1 mg/kg)
CN1CCc2c(c3cc(F)ccc3n2CCc2ccccc2)C1.Cl [1.1.2(1-6)•HCl]	16	85	25	–	–	–	–	–
CN1CCc2c(c3ccccc3n2Cc2ccccc2)C1 [1.9(1)·1/2NDSA, bis-(5-benzyl-2-methyl-2,3,4,5-tetrahydro-1H-pyrido[4,3-b]indole) naphthalene-1,5-disulfonate]	–	–	–	act as nootropic	nootropic action	anxiolytic (tranquilizing) action which is comparable with the activity of Buspirone and Lorasepam	–	–
Cc1ccc2c(c1)c1c(n2CCc2ccc(C)nc2)CCN(C)C1.Cl.Cl [1.1.2(4-2)]	–	–	–	–	improve memory	–	decreasing memory disorders coused by Scopalomine	analogous action
